Experimental data from ChEMBL document CHEMBL1156950, “Synthesis and biological evaluation of 4-anilinoquinolines as potent inhibitors of epidermal growth factor receptor” (J Med Chem, 2010).

Legend:
[1] = target: MAP kinase-activated protein kinase 2 (Homo sapiens) (UniProt P49137); experiment: Inhibition of MAPKAP-K2 at 10 uM assessed as residual activity by [33P]ATP radioactive filter binding assay relative to control
[2] = target: Ribosomal protein S6 kinase alpha-5 (Homo sapiens) (UniProt O75582); experiment: Inhibition of MSK1 at 10 uM assessed as residual activity by [33P]ATP radioactive filter binding assay relative to control
[3] = target: Tyrosine-protein kinase BTK (Homo sapiens) (UniProt Q06187); experiment: Inhibition of BTK at 10 uM assessed as residual activity by [33P]ATP radioactive filter binding assay relative to control
[4] = target: Serine/threonine-protein kinase pim-2 (Homo sapiens) (UniProt Q9P1W9); experiment: Inhibition of PIM2 at 10 uM assessed as residual activity by [33P]ATP radioactive filter binding assay relative to control
[5] = target: Serine/threonine-protein kinase Nek2 (Homo sapiens) (UniProt P51955); experiment: Inhibition of NEK2a at 10 uM assessed as residual activity by [33P]ATP radioactive filter binding assay relative to control
Chain of Serine/threonine-protein kinase Nek2 (Homo sapiens) (P51955 whole entry): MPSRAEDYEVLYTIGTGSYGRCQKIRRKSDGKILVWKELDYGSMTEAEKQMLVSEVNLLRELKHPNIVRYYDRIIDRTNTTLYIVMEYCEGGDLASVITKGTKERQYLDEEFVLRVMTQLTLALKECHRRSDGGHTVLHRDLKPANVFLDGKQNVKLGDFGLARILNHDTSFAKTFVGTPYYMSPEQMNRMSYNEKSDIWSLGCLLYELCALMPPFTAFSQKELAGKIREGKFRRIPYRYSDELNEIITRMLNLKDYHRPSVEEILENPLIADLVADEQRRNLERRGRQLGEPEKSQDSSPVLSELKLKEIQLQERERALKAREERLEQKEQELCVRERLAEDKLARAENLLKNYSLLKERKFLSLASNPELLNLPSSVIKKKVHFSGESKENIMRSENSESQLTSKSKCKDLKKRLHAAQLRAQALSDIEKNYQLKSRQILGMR

[6] = target: Homeodomain-interacting protein kinase 2 (Homo sapiens) (UniProt Q9H2X6); experiment: Inhibition of HIPK2 at 10 uM assessed as residual activity by [33P]ATP radioactive filter binding assay relative to control
cells [7] = conditions: Mus musculus, BaF3, 96 h
[8] = target: Serine/threonine-protein kinase pim-1 (Homo sapiens) (UniProt P11309); experiment: Inhibition of PIM1 at 10 uM assessed as residual activity by [33P]ATP radioactive filter binding assay relative to control
[9] = target: Fibroblast growth factor receptor 1 (Homo sapiens) (UniProt P11362); experiment: Inhibition of FGF-R1 at 10 uM assessed as residual activity by [33P]ATP radioactive filter binding assay relative to control
Chain of Fibroblast growth factor receptor 1 (Homo sapiens) (P11362 22-822 limits assumed): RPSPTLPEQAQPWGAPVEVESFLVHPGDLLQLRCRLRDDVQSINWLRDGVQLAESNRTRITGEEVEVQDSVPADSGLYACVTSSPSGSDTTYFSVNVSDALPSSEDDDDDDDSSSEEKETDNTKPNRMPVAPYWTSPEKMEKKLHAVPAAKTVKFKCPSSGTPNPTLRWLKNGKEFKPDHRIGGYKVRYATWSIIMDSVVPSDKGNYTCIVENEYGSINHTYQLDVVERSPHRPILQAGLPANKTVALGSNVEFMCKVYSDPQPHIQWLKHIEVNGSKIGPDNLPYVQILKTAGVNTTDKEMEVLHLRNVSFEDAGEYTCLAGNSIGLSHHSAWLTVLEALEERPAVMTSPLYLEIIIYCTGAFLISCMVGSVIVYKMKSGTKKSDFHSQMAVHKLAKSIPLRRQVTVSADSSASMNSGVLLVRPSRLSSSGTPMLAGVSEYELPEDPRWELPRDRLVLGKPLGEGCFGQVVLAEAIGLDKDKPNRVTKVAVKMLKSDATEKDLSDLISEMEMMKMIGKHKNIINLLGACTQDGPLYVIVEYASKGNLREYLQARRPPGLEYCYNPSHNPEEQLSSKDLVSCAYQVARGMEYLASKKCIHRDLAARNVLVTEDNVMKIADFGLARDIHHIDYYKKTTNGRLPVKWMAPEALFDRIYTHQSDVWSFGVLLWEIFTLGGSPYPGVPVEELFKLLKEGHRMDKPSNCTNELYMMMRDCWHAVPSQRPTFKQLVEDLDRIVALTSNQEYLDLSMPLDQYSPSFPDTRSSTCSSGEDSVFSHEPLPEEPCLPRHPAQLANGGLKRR

[10] = target: RAC-alpha serine/threonine-protein kinase (Homo sapiens) (UniProt P31749); experiment: Inhibition of PKBalpha at 10 uM assessed as residual activity by [33P]ATP radioactive filter binding assay relative to control
[11] = target: Ribosomal protein S6 kinase alpha-3 (Homo sapiens) (UniProt P51812); experiment: Inhibition of RSK2 at 10 uM assessed as residual activity by [33P]ATP radioactive filter binding assay relative to control
[12] = target: Serine/threonine-protein kinase D1 (Homo sapiens) (UniProt Q15139); experiment: Inhibition of PKD1 at 10 uM assessed as residual activity by [33P]ATP radioactive filter binding assay relative to control
[13] = target: Cyclin-dependent kinase 2/cyclin A (Homo sapiens) (UniProt P24941+P20248+P78396); experiment: Inhibition of CDK2/Cyclin A at 10 uM assessed as residual activity by [33P]ATP radioactive filter binding assay relative to control; type: protein-complex assay
[14] = target: Calcium/calmodulin-dependent protein kinase type 1 (Homo sapiens) (UniProt Q14012); experiment: Inhibition of CAMK1 at 10 uM assessed as residual activity by [33P]ATP radioactive filter binding assay relative to control
Chain of Calcium/calmodulin-dependent protein kinase type 1 (Homo sapiens) (Q14012 whole entry, looked up): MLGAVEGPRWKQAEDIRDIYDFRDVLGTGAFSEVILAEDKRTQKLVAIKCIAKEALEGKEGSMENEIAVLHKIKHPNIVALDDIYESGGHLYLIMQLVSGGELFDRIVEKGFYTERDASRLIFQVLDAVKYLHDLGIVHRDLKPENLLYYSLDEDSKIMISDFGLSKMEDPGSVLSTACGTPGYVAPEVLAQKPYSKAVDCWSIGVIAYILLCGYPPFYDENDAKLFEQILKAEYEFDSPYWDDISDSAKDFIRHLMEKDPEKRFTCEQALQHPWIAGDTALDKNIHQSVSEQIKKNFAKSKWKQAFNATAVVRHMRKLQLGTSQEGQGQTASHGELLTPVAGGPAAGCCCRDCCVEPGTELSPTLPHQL

[15] = target: Insulin receptor-related protein (Homo sapiens) (UniProt P14616); experiment: Inhibition of IRR at 10 uM assessed as residual activity by [33P]ATP radioactive filter binding assay relative to control
cells [16] = conditions: Mus musculus, BaF3, 96 h; remark: listed apart in the source
Description: Growth inhibition of mouse BA/F3 cells expressing EGFR Del3 mutant after 96 hrs by cell titer-glo assay

[17] = target: Serine/threonine-protein kinase PLK1 (Homo sapiens) (UniProt P53350); experiment: Inhibition of PLK1 at 10 uM assessed as residual activity by [33P]ATP radioactive filter binding assay relative to control
Chain of Serine/threonine-protein kinase PLK1 (Homo sapiens) (P53350 whole entry): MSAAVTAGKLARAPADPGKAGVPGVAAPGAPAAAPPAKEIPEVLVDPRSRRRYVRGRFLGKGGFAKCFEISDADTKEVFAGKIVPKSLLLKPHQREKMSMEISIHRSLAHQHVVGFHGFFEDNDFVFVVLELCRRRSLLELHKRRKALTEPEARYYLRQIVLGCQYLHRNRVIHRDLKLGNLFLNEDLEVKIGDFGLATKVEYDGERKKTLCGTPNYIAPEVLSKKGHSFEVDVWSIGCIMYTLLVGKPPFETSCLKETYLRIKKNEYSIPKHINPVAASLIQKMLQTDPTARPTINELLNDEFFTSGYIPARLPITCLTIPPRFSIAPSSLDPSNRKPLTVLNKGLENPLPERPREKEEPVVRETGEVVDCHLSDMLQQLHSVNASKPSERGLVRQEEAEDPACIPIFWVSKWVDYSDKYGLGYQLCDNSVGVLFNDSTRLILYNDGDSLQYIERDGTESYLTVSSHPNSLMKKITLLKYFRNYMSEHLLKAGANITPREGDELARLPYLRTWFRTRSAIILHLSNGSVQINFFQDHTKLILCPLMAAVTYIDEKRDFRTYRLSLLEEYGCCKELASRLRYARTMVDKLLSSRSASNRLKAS

cells [18] = conditions: Mus musculus, BaF3, 96 h; remark: listed apart in the source
Description: Growth inhibition of mouse BA/F3 cells expressing EGFR Del5 and Thr790Met mutant after 96 hrs by cell titer-glo assay

[19] = target: Mitogen-activated protein kinase 11 (Homo sapiens) (UniProt Q15759); experiment: Inhibition of p38beta at 10 uM assessed as residual activity by [33P]ATP radioactive filter binding assay relative to control
[20] = target: Ephrin type-B receptor 3 (Homo sapiens) (UniProt P54753); experiment: Inhibition of EPH-B3 at 10 uM assessed as residual activity by [33P]ATP radioactive filter binding assay relative to control
[21] = target: Tyrosine-protein kinase SYK (Homo sapiens) (UniProt P43405); experiment: Inhibition of SYK at 10 uM assessed as residual activity by [33P]ATP radioactive filter binding assay relative to control
[22] = Inhibition of VEGFR at 10 uM assessed as residual activity by [33P]ATP radioactive filter binding assay relative to control
[23] = target: Dual specificity tyrosine-phosphorylation-regulated kinase 2 (Homo sapiens) (UniProt Q92630); experiment: Inhibition of DYRK2 at 10 uM assessed as residual activity by [33P]ATP radioactive filter binding assay relative to control
[24] = target: Mitogen-activated protein kinase 14 (Homo sapiens) (UniProt Q16539); experiment: Inhibition of p38alpha at 10 uM assessed as residual activity by [33P]ATP radioactive filter binding assay relative to control
[25] = target: Serine/threonine-protein kinase MARK2 (Homo sapiens) (UniProt Q7KZI7); experiment: Inhibition of MARK2 at 10 uM assessed as residual activity by [33P]ATP radioactive filter binding assay relative to control
[26] = target: Mitogen-activated protein kinase 8 (Homo sapiens) (UniProt P45983); experiment: Inhibition of JNK1 at 10 uM assessed as residual activity by [33P]ATP radioactive filter binding assay relative to control
[27] = Inhibition of CK2 at 10 uM assessed as residual activity by [33P]ATP radioactive filter binding assay relative to control
[28] = target: Tyrosine-protein kinase Lck (Homo sapiens) (UniProt P06239); experiment: Inhibition of Lck at 10 uM assessed as residual activity by [33P]ATP radioactive filter binding assay relative to control
Chain of Tyrosine-protein kinase Lck (Homo sapiens) (P06239 2-509 limits assumed): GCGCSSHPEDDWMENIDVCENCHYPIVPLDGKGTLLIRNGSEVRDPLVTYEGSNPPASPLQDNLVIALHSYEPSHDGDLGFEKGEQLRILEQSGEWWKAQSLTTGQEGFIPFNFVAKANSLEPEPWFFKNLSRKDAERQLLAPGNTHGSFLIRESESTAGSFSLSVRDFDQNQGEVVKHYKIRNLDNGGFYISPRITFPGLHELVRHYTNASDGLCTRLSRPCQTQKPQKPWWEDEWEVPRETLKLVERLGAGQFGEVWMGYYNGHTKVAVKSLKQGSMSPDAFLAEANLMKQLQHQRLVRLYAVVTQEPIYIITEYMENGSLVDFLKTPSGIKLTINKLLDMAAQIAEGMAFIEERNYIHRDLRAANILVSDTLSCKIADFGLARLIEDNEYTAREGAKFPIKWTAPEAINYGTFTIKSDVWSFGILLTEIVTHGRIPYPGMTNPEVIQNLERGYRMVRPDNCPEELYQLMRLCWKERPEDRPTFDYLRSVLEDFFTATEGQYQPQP

[29] = target: Serine/threonine-protein kinase PAK 5 (Homo sapiens) (UniProt Q9P286); experiment: Inhibition of PAK5 at 10 uM assessed as residual activity by [33P]ATP radioactive filter binding assay relative to control
Chain of Serine/threonine-protein kinase PAK 5 (Homo sapiens) (Q9P286 whole entry, looked up): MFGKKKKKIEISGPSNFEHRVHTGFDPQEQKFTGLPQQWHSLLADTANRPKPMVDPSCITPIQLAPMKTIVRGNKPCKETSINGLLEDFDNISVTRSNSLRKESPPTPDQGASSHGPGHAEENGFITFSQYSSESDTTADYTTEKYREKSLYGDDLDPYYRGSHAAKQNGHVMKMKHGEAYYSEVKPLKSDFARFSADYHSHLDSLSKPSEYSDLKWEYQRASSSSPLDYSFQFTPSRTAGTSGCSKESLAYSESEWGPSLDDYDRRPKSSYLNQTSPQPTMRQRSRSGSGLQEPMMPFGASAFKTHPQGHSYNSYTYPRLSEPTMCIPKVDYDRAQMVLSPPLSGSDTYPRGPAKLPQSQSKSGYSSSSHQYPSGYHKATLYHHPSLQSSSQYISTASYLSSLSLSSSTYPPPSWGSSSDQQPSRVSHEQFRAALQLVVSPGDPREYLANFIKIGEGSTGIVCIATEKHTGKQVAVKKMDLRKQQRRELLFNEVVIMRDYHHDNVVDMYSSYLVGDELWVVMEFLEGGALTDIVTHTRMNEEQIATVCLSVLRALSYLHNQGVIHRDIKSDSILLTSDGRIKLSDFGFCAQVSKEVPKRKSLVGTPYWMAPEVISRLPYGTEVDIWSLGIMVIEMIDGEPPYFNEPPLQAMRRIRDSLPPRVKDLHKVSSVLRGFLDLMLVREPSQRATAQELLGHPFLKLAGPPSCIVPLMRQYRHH

[30] = target: Tyrosine-protein kinase CSK (Homo sapiens) (UniProt P41240); experiment: Inhibition of CSK at 10 uM assessed as residual activity by [33P]ATP radioactive filter binding assay relative to control
[31] = target: Aurora kinase A (Homo sapiens) (UniProt O14965); experiment: Inhibition of Aurora A at 10 uM assessed as residual activity by [33P]ATP radioactive filter binding assay relative to control
[32] = target: Serine/threonine-protein kinase BRSK2 (Homo sapiens) (UniProt Q8IWQ3); experiment: Inhibition of BRSK2 at 10 uM assessed as residual activity by [33P]ATP radioactive filter binding assay relative to control
[33] = target: Serine/threonine-protein kinase N2 (Homo sapiens) (UniProt Q16513); experiment: Inhibition of PRK2 at 10 uM assessed as residual activity by [33P]ATP radioactive filter binding assay relative to control
Chain of Serine/threonine-protein kinase N2 (Homo sapiens) (Q16513 whole entry, looked up): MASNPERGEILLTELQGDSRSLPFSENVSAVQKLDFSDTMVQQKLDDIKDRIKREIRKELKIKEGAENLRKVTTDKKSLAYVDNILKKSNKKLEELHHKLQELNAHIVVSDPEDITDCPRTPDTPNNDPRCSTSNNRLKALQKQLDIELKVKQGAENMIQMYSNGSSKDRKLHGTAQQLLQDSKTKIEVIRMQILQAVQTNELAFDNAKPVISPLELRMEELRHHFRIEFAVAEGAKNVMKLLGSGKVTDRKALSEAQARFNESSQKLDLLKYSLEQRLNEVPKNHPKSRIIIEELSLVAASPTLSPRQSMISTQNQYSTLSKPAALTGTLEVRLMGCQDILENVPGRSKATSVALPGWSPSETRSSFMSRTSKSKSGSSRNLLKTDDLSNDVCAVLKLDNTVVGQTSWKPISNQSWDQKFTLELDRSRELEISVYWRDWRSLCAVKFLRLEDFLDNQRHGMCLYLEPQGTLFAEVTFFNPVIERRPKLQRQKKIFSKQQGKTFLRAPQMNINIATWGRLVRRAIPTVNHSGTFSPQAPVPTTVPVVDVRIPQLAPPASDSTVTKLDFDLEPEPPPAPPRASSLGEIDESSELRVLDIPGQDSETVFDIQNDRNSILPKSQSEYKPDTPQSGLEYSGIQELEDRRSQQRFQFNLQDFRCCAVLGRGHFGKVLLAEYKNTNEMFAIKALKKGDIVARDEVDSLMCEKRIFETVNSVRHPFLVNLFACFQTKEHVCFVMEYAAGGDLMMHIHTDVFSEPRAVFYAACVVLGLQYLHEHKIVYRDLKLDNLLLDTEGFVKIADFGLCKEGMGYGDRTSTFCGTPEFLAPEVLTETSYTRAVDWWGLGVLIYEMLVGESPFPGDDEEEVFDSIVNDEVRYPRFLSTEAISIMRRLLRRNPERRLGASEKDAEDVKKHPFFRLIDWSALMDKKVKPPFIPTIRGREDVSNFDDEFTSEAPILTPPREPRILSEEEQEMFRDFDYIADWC

Chain of MAP kinase-activated protein kinase 2 (Homo sapiens) (P49137 whole entry, looked up): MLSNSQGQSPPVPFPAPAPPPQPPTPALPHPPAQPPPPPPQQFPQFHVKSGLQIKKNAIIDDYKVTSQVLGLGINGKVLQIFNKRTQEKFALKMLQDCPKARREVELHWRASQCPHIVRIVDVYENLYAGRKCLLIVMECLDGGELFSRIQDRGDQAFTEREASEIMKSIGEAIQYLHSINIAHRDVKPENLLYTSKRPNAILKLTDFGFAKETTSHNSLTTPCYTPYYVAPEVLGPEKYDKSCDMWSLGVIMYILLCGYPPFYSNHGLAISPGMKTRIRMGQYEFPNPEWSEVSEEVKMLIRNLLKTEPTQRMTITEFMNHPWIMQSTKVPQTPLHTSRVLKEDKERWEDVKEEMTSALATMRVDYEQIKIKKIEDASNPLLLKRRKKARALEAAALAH

Row | SMILES | Activity [1] | Activity [2] | Activity [3] | Activity [4] | Activity [5] | Activity [6] | GI50 (cells [7]) | Activity [8] | Activity [9] | Activity [10] | Activity [11] | Activity [12] | Activity [13] | Activity [14] | Activity [15] | GI50 (cells [16]) | Activity [17] | GI50 (cells [18]) | Activity [19] | Activity [20] | also measured
1 | CN(C)CCCC(=O)Nc1ccc2ncnc(Nc3cccc(Br)c3)c2c1 | 90% | 93% | 79% | 62% | 96% | 97% | < 0.5 µM | 12% | 37% | 103% | 78% | 18% | 93% | 57% | 70% | < 0.5 µM | 95% | > 5 µM | 81% | 17% | Activity [21]: 67%; Activity [22]: 50%; Activity [23]: 51%; Activity [24]: 63%; Activity [25]: 82%; Activity [26]: 76%; Activity [27]: 96%; Activity [28]: 3%; Activity [29]: 64%; Activity [30]: 63%; Activity [31]: 66%; Activity [32]: 29%; Activity [33]: 37%
2 | CN(C)CCCC(=O)Nc1ccc2nccc(Nc3cccc(Br)c3)c2c1 | 86% | 96% | 36% | 75% | 95% | 104% | < 0.5 µM | 46% | 31% | 100% | 74% | 14% | 88% | 30% | 79% | < 0.5 µM | 109% | > 0.5 µM | 63% | 5% | Activity [21]: 57%; Activity [22]: 36%; Activity [23]: 52%; Activity [24]: 30%; Activity [25]: 77%; Activity [26]: 49%; Activity [27]: 90%; Activity [28]: 1%; Activity [29]: 68%; Activity [30]: 73%; Activity [31]: 88%; Activity [32]: 36%; Activity [33]: 36%
